Holding throughout (type): in vivo
For experiment [1], the system named is Lolium perenne (LOLPE). The experiment can be described thus: Post-emergence activity, glasshouse pot test (100=total damage to plant; 0=no damage to plant). The following applies: 336 h, evaluated 14 or 15 days after spraying; for pest or weed control at 500 g/ha: rate 500 g/ha. Here is the method:
(§1) Monocotyledonous and dicotyledonous test plants were sown in standard soil in pots. After cultivation for one day (pre-emergence) or after 10 days cultivation (post-emergence) under controlled conditions in a glasshouse, the plants were sprayed with an aqueous spray solution derived from the formulation of the technical active ingredient in 0.6 ml acetone and 45 ml formulation solution containing 10.6% Emulsogen EL (Registry number 61791-12-6), 42.2% N-methyl pyrrolidone, 42.2% dipropylene glycol monomethyl ether (Registry number 34590-94-8) and 0.2% X-77 (Registry number 11097-66-8). The test plants were then grown in a greenhouse under optimum conditions until, 14 or 15 days later for post-emergence and 19, 20 or 21 days for pre-emergence, the test was evaluated (100=total damage to plant; 0=no damage to plant). Alopecurus myosuroides (ALOMY), Avena fatua (AVEFA), Lolium perenne (LOLPE), Setaria faberi (SETFA), Digitaria sanguinalis (DIGSA), Echinochloa crus-galli (ECHCG) Post-Emergence Activity

The subject of experiment [2] is Echinochloa crus-galli (ECHCG). The experiment is described as above. Particulars: evaluated 14 or 15 days after spraying; for pest or weed control at 500 g/ha: rate 500 g/ha. Here is the method:
as §1

Experiment [3] deals with Avena fatua (AVEFA). Described as above. Particulars: 336 h, evaluated 14 or 15 days after spraying; for pest or weed control at 500 g/ha: rate 500 g/ha. Here is the method:
as §1

In experiment [4] the test system is Setaria faberi (SETFA). Described as above. The following applies: evaluated 14 or 15 days after spraying; for pest or weed control at 500 g/ha: rate 500 g/ha. Here is the method:
as §1

Experiment [5] relates to Alopecurus myosuroides (ALOMY). The experiment is described as above. The following applies: 336 h, evaluated 14 or 15 days after spraying; for pest or weed control at 500 g/ha: rate 500 g/ha. Here is the method:
as §1

Experiment [6] relates to Digitaria sanguinalis (DIGSA). The experiment is described as above. The following applies: evaluated 14 or 15 days after spraying; for pest or weed control at 500 g/ha: rate 500 g/ha. Here is the method: as §1
Experiment [7] deals with Lolium perenne (LOLPE). In words: Pre-emergence activity, glasshouse pot test (100=total damage to plant; 0=no damage to plant). Particulars: rate 500 g/ha, evaluated 19, 20 or 21 days after spraying. On the procedure: as §1, with “Pre-Emergence” for “Post-Emergence”
Experiment [8] has as its system Echinochloa crus-galli (ECHCG). The description is as above. The following applies: rate 500 g/ha, evaluated 19, 20 or 21 days after spraying. On the procedure:
as §1, with “Pre-Emergence” for “Post-Emergence”

In experiment [9] the test system is Avena fatua (AVEFA). The experiment is described as above. The following applies: rate 500 g/ha, evaluated 19, 20 or 21 days after spraying. On the procedure: as §1, with “Pre-Emergence” for “Post-Emergence”
Experiment [10] concerns Setaria faberi (SETFA). Described as above. Particulars: rate 500 g/ha, evaluated 19, 20 or 21 days after spraying. On the procedure:
as §1, with “Pre-Emergence” for “Post-Emergence”

Experiment [11] concerns Alopecurus myosuroides (ALOMY). Described as above. The following applies: rate 500 g/ha, evaluated 19, 20 or 21 days after spraying. On the procedure: as §1, with “Pre-Emergence” for “Post-Emergence”
In experiment [12] the test system is Digitaria sanguinalis (DIGSA). Described as above. The following applies: rate 500 g/ha, evaluated 19, 20 or 21 days after spraying. Here is the method:
as §1, with “Pre-Emergence” for “Post-Emergence”

Consider `CCc1ccc(-c2ccc(Cl)cc2)cc1C1=C(O)CC(C2CCOCC2)CC1=O` (stereo not drawn) [Compound T8], for which the pest or weed control at 500 g/ha in experiment [1] stood at 100%; in experiment [2] it was 90%; in [3], 70%; in experiment [4], 90%; in experiment [5] it was 80%; in experiment [6], 90%. For the same molecule, the pest or weed control at 500 g/ha in [7] was determined as 80%; in [8], 100%; in [9], 60%; in experiment [10], 100%; in experiment [11], 100%; in [12] it was 100%.
`Cc1cc(C)c(C2=C(O)CC(C3CCOCC3)CC2=O)c(C)c1` (stereo not drawn) [Compound T3]: the pest or weed control at 500 g/ha in experiment [1] is 100%; in experiment [2], 100%; in [3] it was 90%; in experiment [4], 90%; in [5], 100%; in [6], 80%. Further, the pest or weed control at 500 g/ha worked out at 100% in experiment [7]; 100% in experiment [8]; 90% in experiment [9]; 60% in experiment [10]; 90% in experiment [11]; 100% in experiment [12].
Take `CCc1cc(C)cc(CC)c1C1=C(O)CC(C2CCCS(=O)(=O)C2)CC1=O` (stereo not drawn) [Compound T19]: the pest or weed control at 500 g/ha in experiment [1] stood at 80%; in experiment [2] it was 100%; in experiment [3] it was 90%; in experiment [4], 100%; in experiment [5], 80%; in experiment [6], 100%. The pest or weed control at 500 g/ha in experiment [7] worked out at 100%; in experiment [8], 100%; in [9], 90%; in experiment [10], 100%; in [11], 100%; in experiment [12], 100%.
Turning to `CCc1cc(C)cc(CC)c1C1=C(O)CC(C2CCSCC2)CC1=O` (stereo not drawn) [Compound T18], the pest or weed control at 500 g/ha stood at 70% in [1]; 70% in experiment [2]; 100% in experiment [3]; 100% in experiment [4]; 90% in [5]; 100% in experiment [6]. In addition, the pest or weed control at 500 g/ha in experiment [7], in [8], in [9], in experiment [10], in [11] and in experiment [12] was 100% in each case.
As for `Cc1ccc(-c2ccc(Cl)cc2)cc1C1=C(O)CC(C2CCOCC2)CC1=O` (stereo not drawn) [Compound T9], the pest or weed control at 500 g/ha was determined as 100% in [1]; 100% in experiment [2]; 70% in experiment [3]; 80% in [4]; 80% in experiment [5]; 90% in experiment [6]. Also, the pest or weed control at 500 g/ha came to 100% in [7]; 100% in experiment [8]; 60% in [9]; 100% in experiment [10]; 60% in [11]; 80% in experiment [12].
As for `CCc1cc(C)cc(CC)c1C1=C(O)CC(C2CCC[S+]([O-])C2)CC1=O` (stereo not drawn) [Compound T23], the pest or weed control at 125 g/ha in [1] (rate 125 g/ha) came to 90%; in experiment [2] (rate 125 g/ha), 80%; in experiment [3] (rate 125 g/ha), 90%; in experiment [4] (rate 125 g/ha), 50%; in experiment [5] (rate 125 g/ha) it was 90%; in experiment [6] (rate 125 g/ha) it was 70%. In addition, the pest or weed control at 500 g/ha in [7] is 100%; in experiment [8] it was 50%; in [9], 100%; in [10], 70%; in [11], 100%; in experiment [12] it was 100%.
As for `CCc1ccc(-c2ccc(Cl)cc2)cc1C1=C(O)CC(C2CCOC2)CC1=O` (stereo not drawn) [Compound T6], the pest or weed control at 500 g/ha in experiment [1] stood at 100%; in experiment [2], 100%; in [3], 90%; in [4] it was 100%; in experiment [5], 100%; in experiment [6], 100%. Moreover, the pest or weed control at 500 g/ha worked out at 100% in experiment [7]; 100% in experiment [8]; 20% in experiment [9]; 100% in experiment [10]; 90% in experiment [11]; 100% in experiment [12].
As for `Cc1cc(C)c(C2=C(O)CC(C3CCOC3)CC2=O)c(C)c1` (stereo not drawn) [Compound T10], the pest or weed control at 500 g/ha in experiment [1] was 80%; in experiment [2], 90%; in experiment [3], 60%; in [4], 80%; in [5] it was 80%; in experiment [6], 90%. Further, the pest or weed control at 500 g/ha in experiment [8] was 80%; in experiment [9] it was 50%; in experiment [10] it was 70%; in experiment [11], 90%; in experiment [12] it was 80%.
Take `CCc1cc(C)cc(CC)c1C1=C(O)CC(C2CCS(=O)(=O)CC2)CC1=O` (stereo not drawn) [Compound T20]: the pest or weed control at 500 g/ha in experiment [1] came out at 60%; in [2], 100%; in [3] it was 70%; in experiment [4], 90%; in [5], 80%; in experiment [6], 100%. For the same molecule, the pest or weed control at 500 g/ha in experiment [7], in experiment [8], in experiment [9], in experiment [10], in [11] and in experiment [12] was 100% throughout.
On to `CCc1cc(C)cc(C)c1C1=C(O)CC(C2CCCSC2)CC1=O` (stereo not drawn) [Compound T16], for which the pest or weed control at 500 g/ha in experiment [1] amounted to 90%; in [2], 90%; in experiment [3], 80%; in experiment [4] it was 100%; in [5] it was 100%; in experiment [6] it was 100%. Further, the pest or weed control at 500 g/ha in experiment [7] is 100%; in experiment [8], 100%; in [9] it was 100%; in [10], 100%; in experiment [11], 0%; in experiment [12], 100%.
`CCc1cc(C)cc(CC)c1C1=C(O)CC(C2CC[S+]([O-])CC2)CC1=O` (stereo not drawn) [Compound T22]: the pest or weed control at 500 g/ha in experiment [1] was 80%; in experiment [2], 80%; in experiment [3], 90%; in experiment [4], 100%; in [5], 90%; in experiment [6], 100%. Further, the pest or weed control at 500 g/ha in [7] amounted to 90%; in [8], 70%; in [9] it was 90%; in experiment [11] it was 90%.

Usually pest or weed control stands for how far the test organism was held down.
